Marks after values point to notes of the source that are not given here. Bridge positions count the residues as written; N and C are the ends. Square brackets hold non-standard residues; d marks the D form. Peptide text beside a SMILES is read from it. * marks the point of attachment. C18 diacid = O=C(O)CCCCCCCCCCCCCCCCC(=O)*; Palmitoyl = CCCCCCCCCCCCCCCC(=O)*; Dab = NCC[C@H](N)C(=O)O; Dap = NC[C@H](N)C(=O)O; AEEA = NCCOCCOCC(=O)O; GABA = NCCCC(=O)O
Columns and labels:
cGMP = experiment: Plasma cGMP after SC bolus of natriuretic peptides in CD-1 mice (pharmacodynamics, Table 3); format: in vivo; settings: SC bolus 1.0 mg/kg (≤0.45 μmol/kg), baseline 10 +/−8 pmol/ml, n = 3-5
Description: (§1) The test articles were formulated or dissolved in sterile water for injection on the same day of administration. […] Blood samples were collected via retro-orbital bleed at 2- and 6-hours post-injection, with two bleedings per animal at two different timepoints. The samples were collected in K2EDTA tubes, processed by centrifugation (2000×g; 15 m 4 eC within 30 minutes after collection), and the resulting plasma samples were stored at −80° C. Biochemical analysis: The plasma concentration of the respective natriuretic peptide was analyzed using commercially available ELISA kits from Phoenix Pharmaceuticals (Burlingame, CA): ANP ELISA (cat #EKE-005-06), BNP ELISA (cat #EKE-011-03), and CNP ELISA (cat #EKE-012-03). […] Plasma cGMP was analyzed using a commercially available kit from Abcam (ab133052, Waltham, MA).

[1] = Plasma concentration of respective natriuretic peptide by ELISA after SC bolus in CD-1 mice (pharmacokinetics, Table 3); settings: male, CD-1, mouse, in vivo, sc, 1 mg/kg
Description: as §1

With `CC[C@H](C)[C@@H]1NC(=O)[C@H](CCCNC(=N)N)NC(=O)[C@H](CC(=O)O)NC(=O)[C@H](CC(C)C)NC(=O)[C@H](CCCCN)NC(=O)[C@H](CC(C)C)NC(=O)CNC(=O)[C@H](Cc2ccccc2)NC(=O)[C@@H](NC(=O)CNC(=O)[C@H](CCCCN)NC(=O)[C@H](CO)NC(=O)[C@H](CC(C)C)NC(=O)CNC(=O)[C@H](CN)NC(=O)[C@H](CN)NC(=O)COCCOCCNC(=O)COCCOCCNC(=O)COCCOCCNC(=O)CCCCCCCCCCCCCCCCC(=O)O)CSSC[C@@H](C(=O)O)NC(=O)CNC(=O)[C@H](CC(C)C)NC(=O)CNC(=O)[C@H](CO)NC(=O)[C@H](CCC(N)=O)NC(=O)[C@H](CO)NC(=O)CNC1=O` [SEQ ID NO: 39] ({C18 diacid-AEEA-AEEA-AEEA}-[Dap][Dap]GLSKGCFGLKLDRIGSQSGLGC-OH; disulfide 8-24; C-terminus assumed) the “Plasma concentration of cGMP, 2 hr” value (cGMP) was 13.29 pmol/mL, the “Plasma concentration of cGMP, 6 hr” value (cGMP) was 43.60 pmol/mL and the level at 2 h [1] was 50.7 ng/mL. For the same compound, the level at 6 h [1] was 23.7 ng/mL.

In the case of `CC[C@H](C)[C@@H]1NC(=O)[C@H](CCCNC(=N)N)NC(=O)[C@H](CC(=O)O)NC(=O)[C@H](CC(C)C)NC(=O)[C@H](CCCCN)NC(=O)[C@H](CC(C)C)NC(=O)CNC(=O)[C@H](Cc2ccccc2)NC(=O)[C@@H](NC(=O)CNC(=O)[C@H](CCCCN)NC(=O)[C@H](CO)NC(=O)[C@H](CC(C)C)NC(=O)CNC(=O)[C@H](CCN)NC(=O)[C@H](CCN)NC(=O)COCCOCCNC(=O)COCCOCCNC(=O)COCCOCCNC(=O)CCCCCCCCCCCCCCCCC(=O)O)CSSC[C@@H](C(=O)O)NC(=O)CNC(=O)[C@H](CC(C)C)NC(=O)CNC(=O)[C@H](CO)NC(=O)[C@H](CCC(N)=O)NC(=O)[C@H](CO)NC(=O)CNC1=O` [SEQ ID NO: 33] ({C18 diacid-AEEA-AEEA-AEEA}-[Dab][Dab]GLSKGCFGLKLDRIGSQSGLGC-OH; disulfide 8-24; C-terminus assumed), the “Plasma concentration of cGMP, 2 hr” value (cGMP) is reported as 25.91** pmol/mL, the “Plasma concentration of cGMP, 6 hr” value (cGMP) is reported as 31.61* pmol/mL and the level at 2 h [1] is reported as 75.9 ng/mL. It also gave a level at 6 h [1] of 68.2 ng/mL.

In the case of `CCCCCCCCCCCCCCCC(=O)NCCOCCOCC(=O)NCCOCCOCC(=O)NCCOCCOCC(=O)N[C@@H](CCN)C(=O)NCC(=O)N[C@@H](CC(C)C)C(=O)N[C@@H](CO)C(=O)N[C@@H](CCCCN)C(=O)NCC(=O)N[C@H]1CSSC[C@@H](C(=O)O)NC(=O)CNC(=O)[C@H](CC(C)C)NC(=O)CNC(=O)[C@H](CO)NC(=O)[C@H](CCC(N)=O)NC(=O)[C@H](CO)NC(=O)CNC(=O)[C@H]([C@@H](C)CC)NC(=O)[C@H](CCCNC(=N)N)NC(=O)[C@H](CC(=O)O)NC(=O)[C@H](CC(C)C)NC(=O)[C@H](CCCCN)NC(=O)[C@H](CC(C)C)NC(=O)CNC(=O)[C@H](Cc2ccccc2)NC1=O` [SEQ ID NO: 41] ({Palmitoyl-AEEA-AEEA-AEEA}-[Dab]GLSKGCFGLKLDRIGSQSGLGC-OH; disulfide 7-23; C-terminus assumed), the “Plasma concentration of cGMP, 2 hr” value (cGMP) is reported as 124.77*** pmol/mL, the “Plasma concentration of cGMP, 6 hr” value (cGMP) is reported as 67.78**** pmol/mL and the level at 2 h [1] is reported as 26.7 ng/mL. The level at 6 h [1] was 30.1 ng/mL.

In the case of `CCCCCCCCCCCCCCCC(=O)NCCCC(=O)NCCCC(=O)N[C@@H](CCN)C(=O)N[C@@H](CCN)C(=O)NCC(=O)N[C@@H](CC(C)C)C(=O)N[C@@H](CO)C(=O)N[C@@H](CCCCN)C(=O)NCC(=O)N[C@H]1CSSC[C@@H](C(=O)O)NC(=O)CNC(=O)[C@H](CC(C)C)NC(=O)CNC(=O)[C@H](CO)NC(=O)[C@H](CCC(N)=O)NC(=O)[C@H](CO)NC(=O)CNC(=O)[C@H]([C@@H](C)CC)NC(=O)[C@H](CCCNC(=N)N)NC(=O)[C@H](CC(=O)O)NC(=O)[C@H](CC(C)C)NC(=O)[C@H](CCCCN)NC(=O)[C@H](CC(C)C)NC(=O)CNC(=O)[C@H](Cc2ccccc2)NC1=O` [SEQ ID NO: 37] ({Palmitoyl-GABA-GABA}-[Dab][Dab]GLSKGCFGLKLDRIGSQSGLGC-OH; disulfide 8-24; C-terminus assumed), the “Plasma concentration of cGMP, 2 hr” value (cGMP) is reported as 39.77* pmol/mL, the “Plasma concentration of cGMP, 6 hr” value (cGMP) is reported as 22.71** pmol/mL and the level at 2 h [1] is reported as 11.9 ng/mL. It also gave a level at 6 h [1] of 5.77 ng/mL.

For `CCCCCCCCCCCCCCCC(=O)NCCCC(=O)NCCCC(=O)NCCCC(=O)N[C@@H](CCN)C(=O)N[C@@H](CCN)C(=O)NCC(=O)N[C@@H](CC(C)C)C(=O)N[C@@H](CO)C(=O)N[C@@H](CCCCN)C(=O)NCC(=O)N[C@H]1CSSC[C@@H](C(=O)O)NC(=O)CNC(=O)[C@H](CC(C)C)NC(=O)CNC(=O)[C@H](CO)NC(=O)[C@H](CCC(N)=O)NC(=O)[C@H](CO)NC(=O)CNC(=O)[C@H]([C@@H](C)CC)NC(=O)[C@H](CCCNC(=N)N)NC(=O)[C@H](CC(=O)O)NC(=O)[C@H](CC(C)C)NC(=O)[C@H](CCCCN)NC(=O)[C@H](CC(C)C)NC(=O)CNC(=O)[C@H](Cc2ccccc2)NC1=O` [SEQ ID NO: 36] ({Palmitoyl-GABA-GABA-GABA}-[Dab][Dab]GLSKGCFGLKLDRIGSQSGLGC-OH; disulfide 8-24; C-terminus assumed), the “Plasma concentration of cGMP, 2 hr” value (cGMP) was 54.61*** pmol/mL, the “Plasma concentration of cGMP, 6 hr” value (cGMP) was 41.75** pmol/mL and the level at 2 h [1] was 7.57 ng/mL. For the same compound, the level at 6 h [1] was 2.57 ng/mL.

In the case of `CCCCCCCCCCCCCCCC(=O)NCCOCCOCC(=O)NCCOCCOCC(=O)NCCOCCOCC(=O)N[C@@H](CN)C(=O)NCC(=O)N[C@@H](CC(C)C)C(=O)N[C@@H](CO)C(=O)N[C@@H](CCCCN)C(=O)NCC(=O)N[C@H]1CSSC[C@@H](C(=O)O)NC(=O)CNC(=O)[C@H](CC(C)C)NC(=O)CNC(=O)[C@H](CO)NC(=O)[C@H](CCC(N)=O)NC(=O)[C@H](CO)NC(=O)CNC(=O)[C@H]([C@@H](C)CC)NC(=O)[C@H](CCCNC(=N)N)NC(=O)[C@H](CC(=O)O)NC(=O)[C@H](CC(C)C)NC(=O)[C@H](CCCCN)NC(=O)[C@H](CC(C)C)NC(=O)CNC(=O)[C@H](Cc2ccccc2)NC1=O` [SEQ ID NO: 42] ({Palmitoyl-AEEA-AEEA-AEEA}-[Dap]GLSKGCFGLKLDRIGSQSGLGC-OH; disulfide 7-23; C-terminus assumed), the “Plasma concentration of cGMP, 2 hr” value (cGMP) is reported as 110.21*** pmol/mL, the “Plasma concentration of cGMP, 6 hr” value (cGMP) is reported as 46.90** pmol/mL and the level at 2 h [1] is reported as 26.1 ng/mL. It also gave a level at 6 h [1] of 25 ng/mL.

With `CCCCCCCCCCCCCCCC(=O)N[C@@H](CCC(=O)O)C(=O)NCCOCCOCC(=O)NCCOCCOCC(=O)N[C@@H](CCN)C(=O)N[C@@H](CCN)C(=O)NCC(=O)N[C@@H](CC(C)C)C(=O)N[C@@H](CO)C(=O)N[C@@H](CCCCN)C(=O)NCC(=O)N[C@H]1CSSC[C@@H](C(=O)O)NC(=O)CNC(=O)[C@H](CC(C)C)NC(=O)CNC(=O)[C@H](CO)NC(=O)[C@H](CCC(N)=O)NC(=O)[C@H](CO)NC(=O)CNC(=O)[C@H]([C@@H](C)CC)NC(=O)[C@H](CCCNC(=N)N)NC(=O)[C@H](CC(=O)O)NC(=O)[C@H](CC(C)C)NC(=O)[C@H](CCCCN)NC(=O)[C@H](CC(C)C)NC(=O)CNC(=O)[C@H](Cc2ccccc2)NC1=O` [SEQ ID NO: 38] (Palmitoyl-E[AEEA][AEEA][Dab][Dab]GLSKGCFGLKLDRIGSQSGLGC-OH; disulfide 11-27; C-terminus assumed) the “Plasma concentration of cGMP, 2 hr” value (cGMP) was 74.69* pmol/mL, the “Plasma concentration of cGMP, 6 hr” value (cGMP) was 38.95*** pmol/mL and the level at 2 h [1] was 31.7 ng/mL. For the same compound, the level at 6 h [1] was 25.9 ng/mL.

Source: patent publication US20240325544A1, “CATIONIC LIPID FOR COVALENT MODIFICATION OF PEPTIDES” (PharmalN Corporation, priority 2023, published 2024)
